Experimental data as given in patent publication US20110021471A1, “REDUCING Abeta42 LEVELS AND Abeta AGGREGATION” (priority 2007, published 2011).

Experiments:
Aβ(1-42) = Aβ(1-42) (Homo sapiens, UniProt P05067); assay: Fluorescence titration and saturation binding of Aβ(1-42) with X-34
Protocol: Fluorescence titration and saturation binding of Aβ(1-42) with X-34. Incremental increases in fluorescence (ΔF) when Aβ(1-42) was included at the indicated total concentrations of X-34 were fitted to eq. 1.
Finally, X-34 was tested for its ability to modulate Aβ42 amounts in an APP transgenic mouse (Tg2576).

APP-NOTCH TMD cells = assay: Aβ modulation in APP-NOTCH TMD cells; type: cell-based, human; conditions: APP-NOTCH TMD line
Protocol: (A) and (B) The sequences of wildtype (WT; A) APP and the mutated substrate (B) containing the homologous region (italic, underlined) of the NOTCH transmembrane domain (TMD) in APP where GSMs are hypothesized to bind. […] Bottom row, FT-1 ([…]) raised Aβ42 200% in APP wild-type cells (A); however, in APP-NOTCH TMD cells (B), FT-1 caused minimal changes in the Aβ42 (95%) or Aβ40 (90%) signal. Data are presented as amyloid-β percentage of control±s.e.m., n=3.
FIG. 19. Substitution of human Notch sequence in the APP transmembrane domain (TMD) changes sensitivity to modulation. (A) Site-directed mutagenesis was used to exchange the analogous region of the human Notch TMD (bold and underlined) for a section (bold and underlined) of wild-type APP (APPwt) we have shown to be labeled by GSMs. The new substrate (APP-Notch TMD) is cleaved by γ-secretase primarily after valine and alanine residues corresponding to 40 and 42 in APPwt (arrows). […] The beginning (1) N-terminal amino acid (AA) to the ending C-terminal AA is shown above each peak, with the molecular weight (m/z) below. 1-40 and 1-42 are detected as the two major species in APP-Notch TMD conditioned media. It should be noted that the mutagenesis strategy to create APPNotch TMD led to a single AA deletion relative to APPwt. The correct change in molecular weight caused by the introduced mutations were confirmed by the mass spectrum. For simplicity the peptides are referenced by their C-terminal residues relative to Aβ (40, 42, etc). Representative mass spectra are shown from multiple IP reactions (3) and duplicate spots. […] Both cell lines were treated (6 hours) with L-685,458 (10 μM), which is hypothesized to target the active site aspartate residues, media was collected, and analyzed for changes in Aβ levels. The 40 and 42 Aβ reactive species from both cell lines were inhibited by L-685,458 with equal sensitivity (no significant difference; 40 p>0.5; 42 p>0.4; t test; n=3).
To test the hypothesis that mutation of the GSM binding site in APP should alter sensitivity to GSMs, a portion of the GSM binding site in APP was exchanged with the analogous region of human NOTCH (FIGS. 18A and 18B; FIG. 19). The chimeric construct was used because the NOTCH transmembrane domain (TMD) appears resistant to GSM effects. The APP NOTCH TMD construct produced a spectrum of chimeric amyloid-β species in conditioned cell media (FIG. 19). Although the molecular weight and abundance of each chimeric peptide differed from amyloid-β peptides from APP, the main species produced from the APP-NOTCH TMD construct had identical C-termini to Ab1-40 and Ab1-42, and could be quantified by enzyme-linked immunosorbent assays (ELISAs; FIG. 19). The relative sensitivity to GSMs of APP-NOTCH TMD versus APP was assayed in stably transfected cells. […]

APP(C100)-Flag = molecular target: T1, APP(C100)-Flag (Homo sapiens, UniProt P05067); assay: Photoaffinity labelling of APP(C100)-Flag and competition; type: binding
T1 construct: APP(C100)-Flag, comprising the 99 C-terminal residues of APP plus a methionine at the N-terminus; added methionine (N)
Protocol: FIG. 1. […] The top panel is for anti-biotin staining; the middle panel is for anti-FLAG staining; and the bottom panel is an overlay of anti-biotin (red and anti-Flag green, LiCor Odyssey imaging). (E) Same samples as in D, but analyzed using an ELISA. Following crosslinking, C100Flag and N100 Flag were captured using anti-FLAG plate, and biotin incorporation was measured using streptavidin-HRP. […] Fen-B (50 μM) was crosslinked to Aβ (10 μM). Biotin labeling was measured following capture with an anti-Aβ1-16 antibody and detection with streptavidin-HRP.
Photoaffinity labelling. All experiments used the following general protocol. Samples (recombinant or synthetic peptides, cell lysates and membrane preparations) were exposed in borosilicate test tubes to ultraviolet light (350 nm) in a Rayonet Photoreactor R100 (RPR-3500 lamps, Southern New England Ultra Violet Company) in a cold room (4° C.) for 30 minutes or as otherwise noted. Crosslinked samples were analyzed by ELISA for biotin incorporation, or analyzed directly by SDS-PAGE (Criterion-XT, Bio-Rad), or after precipitation with streptavidin ultralink plus beads (Pierce). After immunblotting, proteins were detected using chemiluminesence (ECL Plus, GEHealthcare) or near-infrared fluorescence (LiCor Odyssey). Full-length APP and APP CTFs (CTF83, CTF99) were detected with CT20, a rabbit polyclonal antibody against the C-terminus of APP. Biotin was detected with an affinity-purified rabbit polyclonal antibody (Bethyl). Cell-based screens for amyloid-β modulation. Human H4 neuroglioma cells (American Type Culture Collection, ATCC) expressing wild-type APP695 protein or CTF105 fused to secreted alkaline phosphatase which is efficiently processed to APP CTFs (CTF83, CTF99) and produce high levels of amyloid-β, were used for the cell-based screens as previously described. Cells were incubated for 5-6 hours in the presence of the various compounds in Opti-Mem culture medium containing 1% fetal bovine serum. Compounds were dissolved in dimethylsulphoxide (DMSO; 0.5% final concentration) and diluted 200-fold. Media was analyzed for various amyloid-β species (40, 42 and total) using ELISAs as described herein. The EC50 values for changes in amyloid-β species were calculated by fitting sigmoid dose-response curves using nonlinear regression in Prism (GraphPad) and are shown as values±s.e.m. Statistical analysis. Data are presented as either percentage control or mean±s.e.m. Results were analyzed using Prism (Graph Pad) with t-tests or one-way analysis of variance analyses (ANOVAs) with Dunnett's post-hoc correction for comparison of multiple samples to a control. Statistical significance is shown as P,0.05 (one asterisk), P,0.01 (two asterisks) or P,0.001 (three asterisks).
The ability of a purified, recombinant Flag-tagged γ-secretase substrate derived from APP (APP(C100)-Flag, comprising the 99 C-terminal residues of APP plus a methionine at the N-terminus) to be labeled by Fen-B and Flurbi-BpB was tested.

Aβ(1-42), sequence (P05067 672-713 limits assumed): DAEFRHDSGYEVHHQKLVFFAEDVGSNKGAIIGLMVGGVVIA
T1 sequence (P05067 672-770 limits assumed): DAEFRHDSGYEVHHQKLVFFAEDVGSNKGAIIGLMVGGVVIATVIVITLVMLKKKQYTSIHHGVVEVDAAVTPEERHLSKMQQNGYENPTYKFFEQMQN

- Kd (Aβ(1-42)): 12.1 ± 4.7 µM
- competition for binding of APP(C100)-Flag by Fen-B and Flurbi-BpB (APP(C100)-Flag): competed
Compound: O=C(O)c1cc(C=Cc2ccc(C=Cc3ccc(O)c(C(=O)O)c3)cc2)ccc1O [X-34, 1,4-bis(3-carboxy-4-hydroxyphenylethenyl)-benzene]
- Aβ40 or Aβ42 concentrations (APP-NOTCH TMD cells): did not change either Aβ40 or Aβ42 concentrations
